Drawing on patent US20260042772A1, “FURO PYRIMIDINE DERIVATES” (Merck Patent GmbH, priority 2022, published 2026), this text covers IC50 for 29 compounds.

The term IC50 denotes the concentration at which inhibition is half-maximal.

The subject of one experiment is CQC sensitive strain (NF54) of P. falciparum. As to the kind of experiment: In vitro antiplasmodial activity, Assay B (as described by Vennerstrom et al. 2004). The format is cell-based. The note with it: Plasmodium falciparum; NF54, Vennerstrom et al. method. How it is done: Compounds were screened against CQC sensitive strain (NF54) of P. falciparum in vitro as described by Vennerstrom et al. (2004). A full dose-response were performed starting at a concentration of 3000 nM, which is then serially diluted 2-fold in complete medium to give 10 concentrations; with the lowest concentration being approximately 6 nM. The same dilution techniques were used for all samples. References were tested at a starting concentration of 1000 ng/mL. The highest concentration of solvent to which the parasites were exposed has no measurable effect on the parasite viability (data not shown).
The compound `CC(C)(O)c1cc(-c2ncnc3cc(-c4ccc([S@@](C)(=N)=O)cc4)oc23)ccn1` [Compound P26, (S)-(4-(4-(2-(2-hydroxypropan-2-yl)pyridin-4-yl)furo[3,2-d]pyrimidin-6-yl)phenyl)(imino)(methyl)-λ6-sulfanone] returned an IC50 of 0.015 to 0.05 µM.

Take `CC(C)(O)c1cc(-c2ncnc3cc(-c4ccc(C(=O)N5CCOCC5)cc4)oc23)cc(F)n1` [Compound P14, (4-(4-(2-fluoro-6-(2-hydroxypropan-2-yl)pyridin-4-yl)furo[3,2-d]pyrimidin-6-yl)phenyl)(morpholino) methanone]: the IC50 was in the range of 0.015 to 0.05 µM.

`CS(=O)(=O)c1ccc(-c2cc3ncnc(-c4cccc(C(=O)N5C[C@@H]6C[C@H]5CO6)c4F)c3o2)cc1` [Compound P5, ((1S,4S)-2-oxa-5-azabicyclo[2.2.1]heptan-5-yl)(2-fluoro-3-(6-(4-(methylsulfonyl)phenyl)furo [3,2-d]pyrimidin-4-yl)phenyl)methanone] returned an IC50 of 0.015 to 0.05 µM.

Consider `CC(C)(O)c1cccc(-c2ncnc3cc(-c4ccc([S@](C)(=N)=O)cc4)oc23)c1F` [Compound P30, (R)-(4-(4-(2-fluoro-3-(2-hydroxypropan-2-yl)phenyl)furo[3,2-d]pyrimidin-6-yl)phenyl)(imino)(methyl)-λ6-sulfanone], for which the half-maximal inhibitory concentration (IC50) was less than 0.015 µM.

Compound `CC(C)(O)c1cc(-c2ncnc3cc(-c4ccc([S@](C)(=N)=O)cc4)oc23)ccn1` [Compound P27, (R)-(4-(4-(2-(2-hydroxypropan-2-yl)pyridin-4-yl)furo[3,2-d]pyrimidin-6-yl)phenyl)(imino)(methyl)-λ6-sulfanone] yielded a half-maximal inhibitory concentration (IC50) of 0.015 to 0.05 µM.

Regarding `CC(C)(O)c1cc(-c2ncnc3cc(-c4ccc(C(=O)O)cc4)oc23)ccn1` [Compound P10, 4-(4-(2-(2-hydroxypropan-2-yl)pyridin-4-yl)furo[3,2-d]pyrimidin-6-yl)benzoic acid], the IC50 is 0.015 to 0.05 µM.

The compound `CN1CCN(C(=O)c2ccc(-c3cc4ncnc(-c5ccnc(C(C)(C)O)c5)c4o3)cc2)CC1` [Compound P22, (4-(4-(2-(2-hydroxypropan-2-yl)pyridin-4-yl)furo[3,2-d]pyrimidin-6-yl)phenyl)(4-methylpiperazin-1-yl)methanone] came in with an IC50 of less than 0.015 µM.

As to `CC(C)(O)c1cc(-c2ncnc3cc(-c4ccc(C(=O)N5CCOCC5)cc4)oc23)ccn1` [Compound P11, (4-(4-(2-(2-hydroxypropan-2-yl)pyridin-4-yl)furo[3,2-d]pyrimidin-6-yl)phenyl)(morpholino) methanone], the IC50 is less than 0.015 µM.

On to `C[C@H]1CN(C(=O)c2ccc(-c3cc4ncnc(-c5ccnc(C(C)(C)O)c5)c4o3)cc2)C[C@H](C)O1` [Compound P16, ((2S,6S)-2,6-dimethylmorpholino)(4-(4-(2-(2-hydroxypropan-2-yl)pyridin-4-yl)furo[3,2-d]pyrimidin-6-yl)phenyl)methanone], for which the IC50 was less than 0.015 µM.

Regarding `CN(C)C(=O)c1ccc(-c2cc3ncnc(-c4ccnc(C(C)(C)O)c4)c3o2)cc1` [Compound P8, 4-(4-(2-(2-hydroxypropan-2-yl)pyridin-4-yl)furo[3,2-d]pyrimidin-6-yl)-N,N-dimethylbenzamide], the IC50 was 0.015 to 0.05 µM.

`C[C@@H]1CN(C(=O)c2ccc(-c3cc4ncnc(-c5ccnc(C(C)(C)O)c5)c4o3)cc2)C[C@@H](C)O1` [Compound P15, ((2R,6R)-2,6-dimethylmorpholino)(4-(4-(2-(2-hydroxypropan-2-yl)pyridin-4-yl)furo[3,2-d]pyrimidin-6-yl)phenyl)methanone] yielded an IC50 of less than 0.015 µM.

With `CC(=O)c1ccc(-c2cc3ncnc(-c4cccc(S(=O)(=O)C5CC5)c4)c3o2)cn1` [Compound P2, 1-(5-(4-(3-(cyclopropylsulfonyl)phenyl)furo[3,2-d]pyrimidin-6-yl)pyridin-2-yl)ethan-1-one], the IC50 is more than 0.05 µM.

`CC(C)(O)Cc1cc(-c2ncnc3cc(-c4ccc(S(C)(=O)=O)cc4)oc23)ccn1` [Compound P6, 2-methyl-1-(4-(6-(4-(methylsulfonyl)phenyl)furo [3,2-d]pyrimidin-4-yl)pyridin-2-yl)propan-2-ol] displayed an IC50 of more than 0.05 µM.

Compound `CC(C)(O)c1cc(-c2ncnc3cc(-c4ccc(S(C)(=O)=O)cc4)oc23)ccn1` [Compound P7, 2-(4-(6-(4-(methylsulfonyl)phenyl)furo [3,2-d]pyrimidin-4-yl)pyridin-2-yl)propan-2-ol] gave an IC50 of 0.015 to 0.05 µM.

For `CN(C)C(=O)c1ccc(-c2cc3ncnc(-c4cccc(C(C)(C)O)c4)c3o2)cc1` [Compound P9, 4-(4-(3-(2-hydroxypropan-2-yl)phenyl)furo[3,2-d]pyrimidin-6-yl)-N,N-dimethylbenzamide], the IC50 is 0.015 to 0.05 µM.

`CC(C)(O)c1cccc(-c2ncnc3cc(-c4ccc([S@@](C)(=N)=O)cc4)oc23)c1F` [Compound P29, (S)-(4-(4-(2-fluoro-3-(2-hydroxypropan-2-yl)phenyl)furo[3,2-d]pyrimidin-6-yl)phenyl)(imino)(methyl)-λ6-sulfanone] came in with an IC50 of less than 0.015 µM.

For `CC(C)(O)c1cc(-c2ncnc3cc(-c4ccc(S(C)(=N)=O)cc4)oc23)ccn1` (centres unmarked) [Compound P25, (4-(4-(2-(2-hydroxypropan-2-yl)pyridin-4-yl)furo[3,2-d]pyrimidin-6-yl)phenyl)(imino)(methyl)-λ6-sulfanone], the IC50 fell in the range of 0.015 to 0.05 µM.

On to `CS(=O)(=O)c1ccc(-c2cc3ncnc(-c4cccc(C(=O)N5C[C@H]6C[C@@H]5CO6)c4F)c3o2)cc1` [Compound P4, ((1R,4R)-2-oxa-5-azabicyclo[2.2.1]heptan-5-yl)(2-fluoro-3-(6-(4-(methylsulfonyl)phenyl)furo [3,2-d]pyrimidin-4-yl)phenyl)methanone], for which the IC50 lay within 0.015 to 0.05 µM.

As for `CS(=O)(=O)c1ccc(-c2cc3ncnc(-c4cccc(C(=O)N5C[C@H]6C[C@@H]5CO6)c4)c3o2)cc1` [Compound P3, ((1R,4R)-2-oxa-5-azabicyclo[2.2.1]heptan-5-yl)(3-(6-(4-(methylsulfonyl)phenyl)furo [3,2-d]pyrimidin-4-yl)phenyl)methanone], the IC50 is more than 0.05 µM.

`CC(C)(O)c1cc(-c2ncnc3cc(-c4ccc(C(=O)N5CC(F)(F)C5)cc4)oc23)ccn1` [Compound P12, (3,3-difluoroazetidin-1-yl)(4-(4-(2-(2-hydroxypropan-2-yl)pyridin-4-yl)furo[3,2-d]pyrimidin-6-yl)phenyl)methanone] displayed an IC50 of 0.015 to 0.05 µM.

A further experiment relates to chloroquine sensitive (CQS) strain (NF54) of P. falciparum. As to the kind of experiment: In vitro antiplasmodial activity, Assay A (parasite lactate dehydrogenase assay). The format is cell-based.
Conditions: not given
The method, then:
Test samples were screened for in vitro antiplasmodial activity against a chloroquine sensitive (CQS) strain (NF54) of the malaria parasite P. falciparum. Continuous in vitro cultures of asexual erythrocyte stages of P. falciparum were maintained using a modified version of the method of Trager and Jensen (1976).1 Quantitative assessment of antiplasmodial activity in vitro was determined via the parasite lactate dehydrogenase assay using a modified method described by Makler (1993). The test samples were tested in triplicate on two separate occasions. Further dilutions were prepared in complete medium on the day of the experiment. Samples were tested as a suspension if not completely dissolved. Chloroquine and artesunate were used as the reference drugs. A full dose-response were performed starting at a concentration of 3000 nM, which is then serially diluted 2-fold in complete medium to give 10 concentrations; with the lowest concentration being approximately 6 nM. The same dilution techniques were used for all samples. References were tested at a starting concentration of 1000 ng/mL. The highest concentration of solvent to which the parasites were exposed has no measurable effect on the parasite viability (data not shown).
Compound `CC(C)(O)c1cccc(-c2ncnc3cc(-c4ccc(S(C)(=N)=O)cc4)oc23)c1F` (centres unmarked) [Compound P28, (4-(4-(2-fluoro-3-(2-hydroxypropan-2-yl)phenyl)furo[3,2-d]pyrimidin-6-yl)phenyl)(imino)(methyl)-λ6-sulfanone] came in with an IC50 of less than 0.015 µM.

Staying with this experiment, now noted: Plasmodium falciparum.
In turn, `CC(C)(O)c1cc(F)cc(-c2ncnc3cc(-c4ccc(C(=O)N5C[C@@H]6C[C@H]5CO6)cc4)oc23)c1` [Compound D175, ((1S,4S)-2-oxa-5-azabicyclo[2.2.1]heptan-5-yl)(4-(4-(3-fluoro-5-(2-hydroxypropan-2-yl)phenyl)furo[3,2-d]pyrimidin-6-yl)phenyl)methanone] showed an IC50 of less than 0.015 µM.

`COC(=O)c1cccc(-c2cc3ncnc(-c4ccnc(C(C)(C)O)c4)c3o2)c1` [Compound D163, methyl 3-(4-(2-(2-hydroxypropan-2-yl)pyridin-4-yl)furo[3,2-d]pyrimidin-6-yl)benzoate] displayed an IC50 of less than 0.015 µM.

`CC(C)(O)c1cc(F)cc(-c2ncnc3cc(-c4ccc(C(=O)N5CCOCC5)cc4)oc23)c1` [Compound D165, (4-(4-(3-fluoro-5-(2-hydroxypropan-2-yl)phenyl)furo[3,2-d]pyrimidin-6-yl)phenyl)(morpholino) methanone] yielded an IC50 of less than 0.015 µM.

With `CC1COCC(C)N1C(=O)c1ccc(-c2cc3ncnc(-c4ccnc(C(C)(C)O)c4)c3o2)cc1` (centres unmarked) [Compound D171, (3,5-dimethylmorpholino)(4-(4-(2-(2-hydroxypropan-2-yl)pyridin-4-yl)furo[3,2-d]pyrimidin-6-yl)phenyl)methanone], the 50% inhibitory concentration (IC50) is more than 0.05 µM.

Take `CC(C)(O)c1cc(-c2ncnc3cc(-c4ccc(C(=O)N5CCOCC5)cc4)oc23)ccc1F` [Compound P32, (4-(4-(4-fluoro-3-(2-hydroxypropan-2-yl)phenyl)furo[3,2-d]pyrimidin-6-yl)phenyl)(morpholino) methanone]: the IC50 was more than 0.05 µM.

Turning to `Cn1cc(-c2cc3ncnc(-c4cccc(S(=O)(=O)C5CC5)c4)c3o2)ccc1=O` [Compound D22, 5-(4-(3-(cyclopropylsulfonyl)phenyl)furo[3,2-d]pyrimidin-6-yl)-1-methylpyridin-2(1H)-one], the IC50 is more than 0.05 µM.

For the compound `CC(C)(O)c1cc(F)cc(-c2ncnc3cc(-c4ccc(C(=O)N5C[C@H]6C[C@@H]5CO6)cc4)oc23)c1` [Compound D173, ((1R,4R)-2-oxa-5-azabicyclo[2.2.1]heptan-5-yl)(4-(4-(3-fluoro-5-(2-hydroxypropan-2-yl)phenyl)furo[3,2-d]pyrimidin-6-yl)phenyl)methanone], the IC50 is less than 0.015 µM.

Turning to `CC(C)(O)c1cc(-c2ncnc3cc(-c4cccc(C(=O)O)c4)oc23)ccn1` [Compound D164, 3-(4-(2-(2-hydroxypropan-2-yl)pyridin-4-yl)furo[3,2-d]pyrimidin-6-yl)benzoic acid], the IC50 is less than 0.015 µM.
